Test results taken from patent US7888331B2, “Ganglioside compositions and methods of use” (Seneb Biosciences, Inc., priority 2003, dated 2011).

Tested on: mouse cortical cells
Assay: Protection of cortical cells from apoptosis (hydrogen peroxide, MTT)
Assay type: cell-based
Details: approx. 0.1 μM, 50 μM hydrogen peroxide
Method: To induce apoptosis, mouse cortical cells were cultured and treated with 50 μM hydrogen peroxide for three hours prior to being treated with the ganglioside analogue. The cells were also treated with the hydrogen peroxide during treatment with the ganglioside analogue and post-treatment for 48 h. Cell death was assayed using the MTT assay.

## LIGA-20
  protection of the cells from apoptosis: approximately 20%
